Results from patent publication US11548875B2, “Inhibitor compounds for male contraception” (University of Washington, priority 2018, dated 2023).
Where two headings read alike, the source gives them in different places.

Experiments:
[1] = target: T1, ALDH1A1 (Homo sapiens, UniProt P00352); assay: Cell-based enzyme assay, retinoic acid production in ALDH1A1/H1299 cells
T1 sequence (P00352 1-501): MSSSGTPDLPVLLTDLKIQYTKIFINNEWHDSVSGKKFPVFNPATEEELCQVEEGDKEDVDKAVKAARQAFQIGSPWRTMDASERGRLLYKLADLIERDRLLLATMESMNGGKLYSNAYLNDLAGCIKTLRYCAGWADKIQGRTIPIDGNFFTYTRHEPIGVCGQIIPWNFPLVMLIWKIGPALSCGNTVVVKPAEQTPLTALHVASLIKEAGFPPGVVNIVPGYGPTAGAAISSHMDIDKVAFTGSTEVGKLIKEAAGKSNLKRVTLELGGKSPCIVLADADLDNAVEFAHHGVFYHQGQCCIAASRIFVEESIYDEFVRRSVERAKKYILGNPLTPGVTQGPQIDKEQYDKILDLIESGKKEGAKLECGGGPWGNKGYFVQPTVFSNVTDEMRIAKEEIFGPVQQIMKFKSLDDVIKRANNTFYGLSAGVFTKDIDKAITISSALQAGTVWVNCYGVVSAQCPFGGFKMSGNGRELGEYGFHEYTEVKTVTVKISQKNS
Method in brief: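 ALDH1A1- or ALDH1A2-stably transfected H1299 cells grown to confluence, then treated 20 h in serum-free RPMI-1640 with 2 μM all-trans-retinal plus varying inhibitor concentrations at 37 °C. Retinoic acid in cells and media quantified; inhibition from RA levels with vs without inhibitor.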

[2] = target: T2, ALDH2 (Homo sapiens, UniProt P05091); assay: Purified ALDH2 assay with propanal, NADH fluorescence; assay type: biochemical; conditions: purified enzyme
T2 construct: histidine-tag (N); made in house; host or cells: bacterial expression (pETite vector, IPTG induction)
T2 sequence (P05091 18-517): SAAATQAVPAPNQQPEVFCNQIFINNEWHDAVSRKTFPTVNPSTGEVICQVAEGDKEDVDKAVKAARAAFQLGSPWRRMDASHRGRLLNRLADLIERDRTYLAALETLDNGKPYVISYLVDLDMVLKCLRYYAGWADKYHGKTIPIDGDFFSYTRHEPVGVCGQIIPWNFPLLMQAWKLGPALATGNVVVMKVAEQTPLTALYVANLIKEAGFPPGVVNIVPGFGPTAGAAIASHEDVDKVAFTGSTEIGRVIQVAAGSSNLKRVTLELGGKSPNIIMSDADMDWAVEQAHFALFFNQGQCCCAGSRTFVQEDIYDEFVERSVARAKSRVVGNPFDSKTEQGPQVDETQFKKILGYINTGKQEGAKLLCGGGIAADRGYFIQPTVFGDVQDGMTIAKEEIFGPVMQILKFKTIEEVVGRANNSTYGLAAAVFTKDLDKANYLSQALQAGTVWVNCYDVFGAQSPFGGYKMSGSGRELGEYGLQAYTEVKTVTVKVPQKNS
Method in brief: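 His-tagged human ALDH2 expressed in bacteria and purified. 2 μg enzyme incubated with 20 μM propanal and varying inhibitor concentrations at room temperature. Activity read as NADH fluorescence (Ex 350/Em 460 nm), with initial velocity from two consecutive readings over 1 minute.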

Row | Compound | EC50 [1] [µM] | IC50 [2] [µM] | EC50 ([1]; cell-based) [µM]
1 | O=C(c1ccc(Cl)cc1)N1CCN(c2ccc([N+](=O)[O-])c(N3CCCC3)c2)CC1 [Compound 342, 4-Chlorophenyl-1-{4-[4-nitro-3-(pyrrolidin-1-yl)phenyl]piperazin-1-yl}methanone] | 0.468 | > 100 | –
2 | CCc1ccc(C(=O)N2CCN(c3ccc([N+](=O)[O-])c(N4CCCC4)c3)CC2)s1 [Compound 323, {4-[4-Nitro-3-(pyrrolidin-1-yl)phenyl]piperazin-1-yl}(5-ethylthiophen-2-yl)methanone] | 0.195 | 52 | –
3 | 3-(4-Acryloylphenyl)-1-phenyl-1H-pyrazole-4-carbaldehyde [Compound 309] | – | > 0.16 | 0.73
4 | Cn1cccc1C(=O)N1CCN(c2ccc(NC(=O)C(Cl)Cl)c(N3CCCC3)c2)CC1 [Compound 367, 1-[4-(4-N-Dichloroacetyl-3-(pyrrolidin-1-yl)phenyl]piperazin-1-yl](1-methyl-1H-pyrrol-2-yl)methanone] | 0.244 | > 80 | –
5 | O=Cc1cn(-c2ccccc2)nc1-c1ccc(O)cc1 [Cmpd 34] | – | 18.2 | 0.469
6 | Cn1cccc1C(=O)N1CCN(c2ccc([N+](=O)[O-])c(N3CCCC3)c2)CC1 [Compound 343, [4-(4-Nitro-3-(pyrrolidin-1-yl)phenyl)piperazin-1-yl](1-methyl-1H-pyrrol-2-yl)methanone] | < 0.5 | 97.5 | –
7 | O=C(c1cccc(Cl)c1)N1CCN(c2ccc([N+](=O)[O-])c(N3CCCC3)c2)CC1 [Compound 341, 3-Chlorophenyl-1-{4-[4-nitro-3-(pyrrolidin-1-yl)phenyl]piperazin-1-yl}methanone] | < 0.5 | > 100 | –
8 | N#Cc1ccc(-n2cc(C(=O)Nc3cccc(F)c3)c(-c3ccc(NC(=O)C(Cl)Cl)cc3)n2)cc1 [Compound 316a, 3-(4-Dichloroacetamidophenyll)-N-(3-fluorophenyl)-1-(4-cyanophenyl)-1H-pyrazole-4-carboxamide] | – | 4 | 0.18
9 | Cn1cccc1C(=O)N1CCN(c2ccc(-c3ccc([N+](=O)[O-])cc3)c(N3CCCCC3)c2)CC1 [Compound 373] | 0.37 | > 100 | –
10 | CS(=O)(=O)c1ccc(-c2nn(-c3ccc(OC(F)(F)F)cc3)cc2C(=O)Nc2cccc(F)c2)cc1 [Compound 258, N-(3-Fluorophenyl)-1-(4-trifluoromethoxypheny)-3-[4-(methylsulfonyl)phenyl]-1H-pyrazole-4-carboxamide] | – | 100 | 26.4

Continued by falling IC50 [2], values first:

Row | EC50 [1] [µM] | IC50 [2] [µM] | EC50 ([1]; cell-based) [µM] | Compound
11 | – | 133 | 1.3 | CCS(=O)(=O)c1ccc(-c2nn(-c3ccccc3)cc2C(=O)Nc2cccc(F)c2)cc1 [Compound 223, 3-(4-(Ethylsulfonyl)phenyl)-N-(3-fluorophenyl)-1-phenyl-1H-pyrazole-4-carboxamide]
12 | – | 83.7 | 2.43 | CS(=O)(=O)c1ccc(-c2nn(-c3cccc(C#N)c3)cc2C(=O)Nc2cccc(F)c2)cc1 [Compound 268, 1-(3-Cyanophenyl)-N-(3-fluorophenyl)-3-[4-(methylsulfonyl)phenyl]-1H-pyrazole-4-carboxamide]
13 | > 0.5 | 79.8 | – | Cc1cc(C(=O)N2CCN(c3ccc([N+](=O)[O-])c(N4CCCC4)c3)CC2)sc1C [Compound 327, {4-[4-Nitro-3-(pyrrolidin-1-yl)phenyl]piperazin-1-yl}(4,5-dimethylthiophen-2-yl)methanone]
14 | – | 67.3 | > 20 | CS(=O)(=O)c1ccc(-c2nn(-c3ccccc3)cc2C(=O)Nc2cccc(F)c2O)cc1 [Compound 231, N-(3-Fluoro-2-hydroxyphenyl)-3-[4-(methylsulfonyl)phenyl]-1-phenyl-1H-pyrazole-4-carboxamide]
15 | 0.33 | 61.6 | – | CC(=O)n1cccc1C(=O)N1CCN(c2ccc([N+](=O)[O-])c(N3CCCC3)c2)CC1 [Compound 347, {4-[4-Nitro-3-(pyrrolidin-1-yl)phenyl]piperazin-1-yl}(1-acetyl-pyrrol-2yl)methanone]
